Patent US20040034003A1, “7-Hydroxy-16alpha-fluoro-5-androsten-17-ones and 7-hydroxy-16alpha-fluoro-5-androstan-17-ones and derivatives thereof” (priority 2002, published 2004)
Several values for one entry are separate records, joined by “and”; a condition that tells them apart may be missing. Identical values can stand only once.

Tested on: TPA-Induced DNA Synthesis in Mouse Epidermis
Test: TPA-induced DNA synthesis in mouse epidermis: [3H]thymidine incorporation and epidermal DNA content of a 2x2 cm2 skin section
Type: in vivo
Conditions: for μg DNA / corrected cpm / cpm/μg DNA / cpm: individual mouse; for dose producing a nadir in [3H]thymidine incorporation / dose producing an overstimulation of [3H]thymidine incorporation: s.c.; for lowest effective dose which suppresses TPA-stimulated epidermal [3H]thymidine incorporation and DNA content: mice
Experimental: Epidermal hypeplasia is determined by measuring the stimulation in [^3H] thymidine incorporation as well as epidermal DNA content of a 2×2 cm^2 section of skin twenty hours after TPA application.
In prior experiments, 16α-fluoro-5-androsten-17-one was administered in escalating doses by the oral subcutaneous, intraperitoneal, and buccal routes of administration, and the effect on TPA-stimulated epidermal [^3H] thymidine incorporation and epidermal DNA content was determined.
In this experiment, the effect of treating mice subcutaneously (s.c.) with suspensions of 7α-hydroxy-16α-flouro-5-androsten-17-one and suspensions of 16aflouro-5-androsten-17-one were investigated.
Variousl6α-flouro-5-androsten-17 one suspensions (Q) were prepared. The vehicle was 95% saline (0.9% NaCl) and 5% Emulphor. For the 5 mg/kg s.c. suspension, 25.3 mg was suspended in 10 mL of Emulphor-saline. The other suspensions were made by diluting the 5 mg/kg suspension. For the 2.5 mg/kg suspension, 1 mL of 5mg/kg s.c. suspension was diluted to a final volume of 2mL, for the 1 m/kg suspension 1 mL of the 5 mg/kg suspension was made to a total of 5 mL, while for the 0.125 mg/kg suspension, 0.5 mL of the 5 mg/kg suspension was made to a final volume of 20 mL. Magnetic stir bars were added to the suspensions which were kept on a magnetic stirrer.
7α-hydroxy-16α-flouro-5-androsten-17-one was prepared as described hereinabove. For the 5 mg/kg s.c. suspension, 16.3 mg was suspended in 6.5 mL of Emulphor-saline. The other suspensions were made by diluting the 5 mg/kg suspension. For the 2.5 mg/kg, 1 mL of 5 mg/kg suspension was diluted to a final volume of 2 mL, for the 1 mg/kg suspension 1 mL of the 5 mg/kg suspension was made to total 5 mL, while for the 0.125 mg/kg suspension, 0.5 mL of the 5 mg/kg suspension was made up to final volume of 20 mL. Magnetic stir bars were added to the suspensions and the suspensions were kept on a magnetic stirrer.
Female CD-1 mice were obtained from Charles River Laboratories, Wilmington, Mass. at 44-46 days of age. The mice were housed two to three per cage in plastic shoebox cages on Alphacel bedding with 12 hours of alternating light and dark in the CAF Animal Facility, 6th floor, Pharmacy Building. The mice had ad libitum access-to Purina 5015 chow and acidified tap water (pH≦2.6). The mice were allowed to acclimate to the facility for one week prior to use in an experiment. Three days after obtaining the mice, the mice were shaved and weighed. Only those mice showing no hair regrowth were used in the experiment.
Four days after the mice were shaved, they were treated as follows:
The mice were sacrificed 20 hours after treatment by an overdose of CO2. Twenty minutes prior to sacrifice, the mice were injected with 60 μCi of [^3H]thymidine (Amersham Batch 297). The mice were treated with a depilatory to remove any residual hair. A 2×2 cm^2 piece of skin was excised, placed in ice water for 30 seconds, then in 55° C. water for 30 seconds, then ice water again for 30 seconds. The epidermis was scrapped off using a scalpel and the scrapings were placed into ice cold 0.4N TCA (trichloroacetic acid). The scrapings were homogenized using a Tekmar Tissumizer (80% power for 30 seconds). The homogenates were centrifuged for 20 minutes at 3,000×g. The precipitates were washed 3× with 0.2N TCA, and 2× with absolute ethanol. The DNA in each sample was hydrolyzed with 0.5N TCA for 30 minuts at 90°. The tubes were centrifuged for 20 minutes at 3000×g. A 0.2 mL aliquot of each hydrolysate was counted in a LKB Rackbeta scintillation counter using Scintiverse II BD as the counting medium. DNA content was determined by the Burton diphenylamine assay.
Various suspensions were prepared of 16α-fluoro-5-androsten-17-one as follows. The vehicle was 95% saline (0.9% NaCl) and 5% Emulphor. For the 5 mg/kg s.c. suspension, 27.8 mg was suspended in 11.4 mL of Emulphor-saline. The other suspensions were made by diluting the 5 mg/kg suspension. […]

[1] = Example 4, 0.125 mg/kg s.c. 1 h before topical TPA 2 μg, 20 h, 0.125 mg/kg
[2] = Example 4, 1 mg/kg s.c. 1 h before topical TPA 2 μg, 20 h, 1 mg/kg
[3] = Example 4, 2.5 mg/kg s.c. 1 h before topical TPA 2 μg, 20 h, 2.5 mg/kg
[4] = Example 4, 5 mg/kg s.c. 1 h before topical TPA 2 μg, 20 h, 5 mg/kg
[5] = Example 5, 1 mg/kg s.c. 1 h before topical TPA 2 μg, 20 h, listed as Fluasterone, 1 mg/kg
[6] = Example 5, 2.5 mg/kg s.c. 1 h before topical TPA 2 μg, 20 h, listed as Fluasterone, 2.5 mg/kg
[7] = Example 5, 5 mg/kg s.c. 1 h before topical TPA 2 μg, 20 h, listed as Fluasterone, 5 mg/kg
[8] = prior experiments, escalating doses, oral, subcutaneous, intraperitoneal and buccal routes

SMILES: C[C@]12CCCCC1=CC[C@@H]1[C@@H]2CC[C@]2(C)C(=O)[C@H](F)C[C@@H]12 [Q, 16α-fluoro-5-androsten-17-one, reference compound]
- μg DNA (Example 4, 0.125 mg/kg s.c. 1 h before topical TPA 2 μg, 20 h, Burton diphenylamine assay, 0.125 mg/kg): 10.0 µg and 9.1 µg
- cpm/μg DNA (group average ±) (Example 4, 0.125 mg/kg s.c. 1 h before topical TPA 2 μg, 20 h): 441.5 ± 133.4 cpm/μg DNA
- corrected cpm [1]: 3,471.0 cpm and 4,876.0 cpm
- cpm/μg DNA [1]: 347.1 cpm/μg DNA and 535.8 cpm/μg DNA
- cpm (Example 4, 0.125 mg/kg s.c. 1 h before topical TPA 2 μg, female CD-1 mice, 20 h after treatment, 0.125 mg/kg): 3,496.0 cpm and 4,901.0 cpm
- cpm/μg DNA (group average ±) (Example 4, 1 mg/kg s.c. 1 h before topical TPA 2 μg, 20 h): 236.4 ± 46.5 cpm/μg DNA
- corrected cpm [2]: 1,811.0 cpm and 2,750.1 cpm
- cpm [2]: 1,836.0 cpm and 2,775.1 cpm
- cpm/μg DNA [2]: 203.5 cpm/μg DNA and 269.6 cpm/μg DNA
- μg DNA [2]: 8.9 µg and 10.2 µg
- cpm/μg DNA (group average ±) (Example 4, 2.5 mg/kg s.c. 1 h before topical TPA 2 μg, 20 h): 173.3 ± 11.3 cpm/μg DNA
- corrected cpm [3]: 1,251.0 cpm and 1,207.0 cpm
- cpm [3]: 1,276.0 cpm and 1,232.0 cpm
- cpm/μg DNA [3]: 181.3 cpm/μg DNA and 165.3 cpm/μg DNA
- μg DNA [3]: 6.9 µg and 7.3 µg
- cpm/μg DNA (group average ±) (Example 4, 5 mg/kg s.c. 1 h before topical TPA 2 μg, 20 h): 1105.5 ± 28.4 cpm/μg DNA
- corrected cpm [4]: 8,249.0 cpm and 10,018.0 cpm
- cpm [4]: 8,274.0 cpm and 10,043.0 cpm
- cpm/μg DNA [4]: 1,085.4 cpm/μg DNA and 1,125.6 cpm/μg DNA
- μg DNA [4]: 7.6 µg and 8.9 µg
- dose producing a nadir in [3H]thymidine incorporation (Example 4): 2.5 mg/kg
- dose producing an overstimulation of [3H]thymidine incorporation (Example 4): 5 mg/kg
- cpm/μg DNA (group average ±) (Example 5, 1 mg/kg s.c. 1 h before topical TPA 2 μg, 20 h): 170.3 ± 21.7 cpm/μg DNA
- corrected cpm [5]: 2,691.0 cpm and 2,741.0 cpm
- cpm/μg DNA [5]: 185.6 cpm/μg DNA and 154.9 cpm/μg DNA
- μg DNA [5]: 14.5 µg and 17.7 µg
- cpm (Example 5, 1 mg/kg s.c. 1 h before topical TPA 2 μg, female CD-1 mice, 20 h, listed as Fluasterone, 1 mg/kg): 2,717.0 cpm and 2,767.0 cpm
- cpm/μg DNA (group average ±) (Example 5, 2.5 mg/kg s.c. 1 h before topical TPA 2 μg, 20 h): 81.4 ± 12.0 cpm/μg DNA
- corrected cpm [6]: 496.0 cpm and 566.0 cpm
- cpm [6]: 522.0 cpm and 592.0 cpm
- cpm/μg DNA [6]: 72.9 cpm/μg DNA and 89.8 cpm/μg DNA
- μg DNA [6]: 6.8 µg and 6.3 µg
- cpm/μg DNA (group average ±) (Example 5, 5 mg/kg s.c. 1 h before topical TPA 2 μg, 20 h): 258.8 ± 12.0 cpm/μg DNA
- corrected cpm [7]: 2,192.0 cpm and 1,777.0 cpm
- cpm [7]: 2,218.0 cpm and 1,803.0 cpm
- cpm/μg DNA [7]: 267.3 cpm/μg DNA and 250.3 cpm/μg DNA
- μg DNA [7]: 8.2 µg and 7.1 µg
- dose producing a nadir in [3H]thymidine incorporation (Example 5): 2.5 mg/kg
- dose producing an overstimulation of [3H]thymidine incorporation (Example 5): 5 mg/kg
- lowest effective dose which suppresses TPA-stimulated epidermal [3H]thymidine incorporation and DNA content (prior experiments, buccal route): 2.5 to 5 mg/kg
- dose response for [3H]thymidine incorporation (in words) [8]: U-shaped dose response
- epidermal DNA content as the dose increased (in words) [8]: remained suppressed
- lowest effective dose which suppresses TPA-stimulated epidermal [3H]thymidine incorporation and DNA content (prior experiments, intraperitoneal route): 5 mg/kg
- lowest effective dose which suppresses TPA-stimulated epidermal [3H]thymidine incorporation and DNA content (prior experiments, oral route): 200 mg/kg
- lowest effective dose which suppresses TPA-stimulated epidermal [3H]thymidine incorporation and DNA content (prior experiments, subcutaneous route): 2.5 mg/kg
- TPA-induced epidermal hyperplasia in mice (in words) (prior finding): inhibits
